Laboratory results reported in patent US8609607B2, “Modified defensins and their use” (The United States of America as represented by the …, priority 2002, dated 2013).

Legend:
A549 cells [1] = test: chromium release assay, effect of ADP-ribosylated HNP-1 on HNP-1 cytotoxic activity; type: cell-based; conditions: HNP-1 12 μM incubated 1 hour at 37° C. with 0-12 μM ADP-ribosyl-HNP-1; FIG. 3B
Description: (§1) Chromium (^51Cr)-labeled A549 cells (American Type Culture Collection) were incubated (18 hours, 37° C.) in 100 μl of serum-free RPMI (Gibco Fluids Inc., Rockville, Md.) containing various concentrations of HNP-1, synthetic HNP-1, or ADP-ribosyl-HNP-1 (1.5 μM, 3 μM, 6 μM, 12 μM, 24 μM) to quantify defensin cytotoxicity. Cytotoxicity was positively correlated with the amount of chromium released from lysed cells (Panyutich et al., Am. J. Respir. Cell. Mol. Biol. 12:351-357, 1995). Percent of lysis was calculated as (cpmexp−cpmspont)/(cpmmax−cpmspont)×100 (exp, experimental conditions; max, maximal release; spont, spontaneous release).
HNP-1 (12 μM) was incubated with various concentrations of ADP-ribosyl-HNP-1 (0-12 μM) for 1 hour at 37° C. before the initiation of the chromium release assay. The chromium release assay was performed as described in Example 5. HNP-1 and ADP-ribosyl-HNP-1 (0-12 μM) were included as controls.

A549 cells [2] = test: IL-8 production by A549 cells (indirect ELISA); type: cell-based; conditions: 12 or 24 hours
Description: A549 cells (3×10^4 cells per well) were incubated in a 96-well plate in 200 μl of serum-free RPMI medium (Gibco Fluids Inc) containing ADP-ribosyl-HNP-1 or HNP-1 (0.25, 0.75, 1.5, 3 μM). Culture medium was sampled after 12 or 24 hours of incubation and IL-8 content in the medium was assayed by indirect ELISA (FIGS. 4A and 4B) according to the manufacturer's instructions (R & D System Inc. Minneapolis, Minn.).

A549 cells [3] = test: chromium release assay, defensin cytotoxicity; type: cell-based; conditions: compared to unmodified HNP-1; 1.5-24 μM, 18 hours, 37° C.; FIG. 2B
Description: as §1

CD3+ T-cells = test: T cell chemotaxis assay; type: cell-based, human; conditions: 0.025 to 25 nM, 4 hours; compared to unmodified HNP; FIG. 4C
Description: CD3^+ T-cells were isolated from human peripheral blood prepared by leukapheresis (NIH, Department of Transfusion Medicine, Bethesda, Md.) (Chertov et al, J. Biol. Chem. 271:2935-2940, 1996) and suspended in migration medium (RPMI 1640, 0.5% bovine serum albumin, 25 mM HEPES). Inserts coated with collagen IV (Becton Dickinson Labware, Bedford, Mass.) were placed into 24-well culture plates to form upper and a lower chambers in each well. Upper chambers were wetted with migration medium, then 500 μl of migration medium with or without ADP-ribosyl-HNP-1 or HNP-1 (0.025 to 25 nM) were added to the lower chamber. Cells were added to the upper chamber and plates were incubated at 37° C. in 5% CO2 for 4 hours. Cells incubated in the presence or absence of (macrophage inflammatory protein-1β) MIP-1β (5 ng/ml) were the positive and negative controls, respectively. Lymphocytes that had migrated to the lower chamber were harvested by centrifugation and counted in a hematocytometer. Chemotaxis percentage was calculated as follows: (number of cells migrated to the lower chamber in the experimental conditions−number of cells migrated in the negative control)/(number of cells migrated in the positive control−number of cells migrated in negative control)×100.

E. coli = test: radial diffusion assay, effect of ADP-ribosylated HNP-1 on HNP-1 activity; type: cell-based; conditions: HNP-1 100 nM incubated 1 hour at 37° C. with 0-800 nM ADP-ribosylated HNP-1; FIG. 3A
Description: (§2) The antibacterial activity of various concentrations of HNP-1 and ADP-ribosyl-HNP-1 (16 nM, 32 nM, 64 nM, 128 nM, 256 nM) on Escherichia coli ATCC43827 (American Type Culture Collection, Rockville, Md.) was evaluated by the radial diffusion assay (Takemura et al., Antimicrob. Agents Chemother. 40: 2280-2284, 1996). Antimicrobial activity was positively correlated with the diameter of a zone cleared of E. coli growth (minus the diameter of the central well (3 mm)).
HNP-1 (100 nM) was incubated for 1 hour at 37° C. with various concentrations of ADP-ribosylated HNP-1 (0-800 nM) before the initiation of the E. coli radial diffusion assay. The radial diffusion assay was performed as described in Example 4.

[4] = test system: Escherichia coli ATCC43827; test: radial diffusion assay, antibacterial activity; type: cell-based; conditions: compared to unmodified HNP-1; 16-256 nM; FIG. 2A
Description: as §2

## ADP-ribosylated HNP-1: HNP-1 (SEQ ID NO:2) mono-ADP-ribosylated by ART-1 with NAD, at arginine 14
A549 cells [1]
  effect on cytotoxic activity of HNP-1, chromium release assay: blocked the cytotoxic activity of HNP-1 in a concentration-dependent manner
A549 cells [2]; 0.75 μM peptide, P=0.01
  IL-8 release into the medium versus unmodified peptide: significantly higher
A549 cells [2]; 1.5 μM peptide, P=0.01
  IL-8 release into the medium versus unmodified peptide: significantly higher
A549 cells [2]; 3 μM peptide
  IL-8 release into the medium versus unmodified peptide: no differences
A549 cells [3]
  cytotoxicity (lysis of 51Cr-labeled A549 cells): less cytotoxic than unmodified HNP-1
CD3+ T-cells
  ability to recruit T cells (chemotaxis): retained the ability to recruit T cells at a level that was comparable to unmodified HNP
E. coli
  effect on antimicrobial/cytotoxic activity of HNP-1, radial diffusion assay: blocked the cytotoxic activity of HNP-1 in a concentration-dependent manner
[4]
  antibacterial activity (diameter of zone cleared of E. coli growth): reduced antibacterial activity
